# Values quoted from earlier work as cited in patent US8945626B2, “Preparation of pharmaceutical compositions” (priority 2006, dated 2015).
structure (smiles),measurement,value
"CC(=O)Nc1ccc(O)cc1 [Paracetamol, 4-Acetamidophenol]",solubility in cold water,very slightly soluble
